Source: patent US20190248830A1, “PROLIPOSOMAL TESTOSTERONE UNDECANOATE FORMULATIONS” (WESTERN UNIVERSITY OF HEALTH SCIENCES, priority 2016, published 2019)
Like-named read-outs stand apart in the source and are kept apart here.

Columns and labels:
[1] = Oral PK (plasma T) of TSX-002, TSX-007, TSX-009, unformulated T and TU in female beagle dogs, fasted or fed; type: in vivo; details: for Av. AUC (plasma T) / Av. Cmax (plasma T) / Av. Tmax / AUC / Cmax / Tmax: oral 7.5 mg/kg; for AUC / Cmax / Tmax: female, beagle, dog, plasma, po, 7.5 mg/kg; for AUC: read-out: Av. AUC (plasma T); for Cmax: read-out: Av. Cmax (plasma T); for Tmax: read-out: Av. Tmax
Procedure: In vivo pK data TSX-002 (native T:Lipid), TSX-007 (native T:Lipid:TPGS (20% w/w of T)), and TSX-009 (TU:Lipid:TPGS (20% w/w of T)). TSX-002, TSX-007, and TSX-009 formulations were orally administered to female beagle dogs under fasted or fed conditions. Fasted condition means animals were fasted overnight, dosing was performed the subsequent morning, and food was served two hours post-dosing. Animals were allowed access to food for another two hours, and monitored if they ate the food. Fed condition means animals were fasted overnight, dosing was performed the subsequent morning, and food was served 15 min. post-dosing. Animals were allowed access to food for another two hours, and monitored if they ate the food. Blood samples were taken, at 0, 0.5, 1, 2, 3, 4, 6, 8, 12 and 24 hours. The administered dosage of TU was 7.5 mg/kg (TU/body weight). Plasma samples were analyzed on Day 1 and Day 7. Pharmacokinetic data for treatment days 1 and 7, under fasting and fed conditions are reported for unformulated T in Table 2; unformulated TU in Table 3; TSX-002 (T:Lipid) in Table 4; TSX-007 (native T:Lipid:TPGS (20% w/w of T)) in Table 5; and TSX-009 (TU:Lipid:TPGS (20% w/w of T)) in Table 6.
(§1) In vivo pK data for TSX-010 (TU:Lipid, 1:1), TSX-011 (TU:Lipid, 1:2), and TSX-012 (TU:Lipid, 1:4) in female Beagle dogs. Unformulated TU, TSX-010, TSX-011, and TSX-012 formulations. In addition to tracking plasma T levels, blood samples taken by jugular vein puncture at 0, 0.5, 1, 2, 3, 4, 6, 8, 12, 24 hours, and the following pharmacokinetic (PK) parameters were analyzed for each formulation and unformulated testosterone and testosterone undecanoate. Table 18 contains PK data for unformulated testosterone and testosterone undecanoate at days 1 and 7, under fasted and fed conditions. Tables 19 and 20 contain PK data for the TSX-010, TSX-011, and TSX-012 formulations under fasted (Table 19) and fed (Table 20) conditions.

[2] = Plasma testosterone concentrations and PK after oral TSX-010, TSX-011, TSX-012 or unformulated TU in female beagle dogs; type: in vivo; details: TU 7.5 mg/kg
Procedure: Plasma testosterone concentrations after administration of TSX-010 (TU:Lipid, 1:1), TSX-011 (TU:Lipid, 1:2), and TSX-012 (TU:Lipid, 1:4). Unformulated TU, TSX-010, TSX-011, and TSX-012 formulations were orally administered under either fasted or fed conditions. The fasted condition means animals were fasted overnight, dosing was performed the subsequent morning, and food was served two hours post-dosing. Animals were allowed access to food for another two hours, and monitored if they ate the food. The fed condition means animals were fasted overnight, dosing was performed the subsequent morning, and food was served 15 min. post-dosing. Animals were allowed access to food for another two hours, and monitored if they ate the food. For unformulated TU, blood samples were taken by venipuncture of the jugular vein at 0, 0.5, 1, 2, 3, 4, 6, 8, 12, and 24 hours in both fed and fasted conditions. For TU formulations like TSX-010, TSX-011, TSX-012, blood samples were taken by venipuncture of the jugular vein at 0, 4, 6, 8, 10, 12, 14, 16, 18 and 24 hours in fasted conditions and at 0, 1, 2, 4, 6, 8, 10, 12, 16 and 24 hours in fed conditions in femalebeagle dogs. The administered dosages of TU were either 1.875, 3.75, or 7.5 mg/kg (TU/body weight). Plasma testosterone concentration data, was obtained at day 1 for formulations TSX-010, TSX-011, and TSX-012, and days 1 and 7, for unformulated TU.
as §1

Structure (SMILES): CCCCCCCCCCC(=O)O[C@H]1CC[C@H]2[C@@H]3CCC4=CC(=O)CC[C@]4(C)[C@H]3CC[C@]12C [Unformulated TU, testosterone undecanoate]
- Plasma profiles on Day 7 ([1]; Day 7, compared to responders to proliposomal TU formulations): plasma profiles dropped significantly
- Increase in AUC and Cmax in the presence of food ([1]; fed compared to fasted state): two-fold increase in AUC and Cmax
- Av. AUC (plasma T) ([1]; day 1, fasted): 16.63 ± 27.15 ng·h/mL
- Av. Cmax (plasma T) ([1]; day 1, fasted): 2.34 ± 3.94 ng/mL
- Av. Tmax ([1]; day 1, fasted): 6.50 ± 4.43 h
- Av. AUC (plasma T) ([1]; day 1, fed): 108.41 ± 42.73 ng·h/mL
- Av. Cmax (plasma T) ([1]; day 1, fed): 33.83 ± 5.06 ng/mL
- Av. Tmax ([1]; day 1, fed): 4.0 ± 1.55 h
- Av. AUC (plasma T) ([1]; day 7, fasted): 30.88 ± 35.98 ng·h/mL
- Av. Cmax (plasma T) ([1]; day 7, fasted): 4.38 ± 5.12 ng/mL
- Av. Tmax ([1]; day 7, fasted): 8.0 ± 5.66 h
- Av. AUC (plasma T) ([1]; day 7, fed): 20.50 ± 16.59 ng·h/mL
- Av. Cmax (plasma T) ([1]; day 7, fed): 5.37 ± 3.78 ng/mL
- Av. Tmax ([1]; day 7, fed): 4.17 ± 3.25 h
- Animals with plasma T > 0.5 ng/mL, percent ([2]; fasted, day 1): (33.3%)
- Animals with plasma T > 0.5 ng/mL (responders/treated) ([2]; fasted, day 1, within 24 h): 2/6
- Animals with plasma T > 0.5 ng/mL, percent ([2]; fasted, day 7): (50%)
- Animals with plasma T > 0.5 ng/mL (responders/treated) ([2]; fasted, day 7, within 24 h): 3/6
- Animals with plasma T > 0.5 ng/mL, percent ([2]; fed, day 1): (100%)
- Animals with plasma T > 0.5 ng/mL (responders/treated) ([2]; fed, day 1, within 24 h): 6/6
- Animals with plasma T > 0.5 ng/mL, percent ([2]; fed, day 7): (100%)
- Animals with plasma T > 0.5 ng/mL (responders/treated) ([2]; fed, day 7, within 24 h): 5/6

Structure (SMILES): C[C@]12CC[C@H]3[C@@H](CCC4=CC(=O)CC[C@@]43C)[C@@H]1CC[C@@H]2O [Unformulated T, testosterone]
- AUC ([1]; day 1, fasted): 28.7 ± 9.44 ng·h/mL
- Cmax ([1]; day 1, fasted): 6.39 ± 2.47 ng/mL
- Tmax ([1]; day 1, fasted): 2.17 ± 0.98 h
- AUC ([1]; day 1, fed): 36.8 ± 19.4 ng·h/mL
- Cmax ([1]; day 1, fed): 9.85 ± 5.8 ng/mL
- Tmax ([1]; day 1, fed): 3.67 ± 2.58 h
- AUC ([1]; day 7, fasted): 11.2 ± 3.28 ng·h/mL
- Cmax ([1]; day 7, fasted): 2.7 ± 0.78 ng/mL
- Tmax ([1]; day 7, fasted): 2.5 ± 1.22 h
- AUC ([1]; day 7, fed): 43 ± 43.9 ng·h/mL
- Cmax ([1]; day 7, fed): 13 ± 13.6 ng/mL
- Tmax ([1]; day 7, fed): 3.5 ± 4.42 h
